Measured values: patent US9328059B2, “Pharmaceutical composition for preventing or treating autophagy-related diseases, angiogenic diseases or melanin-related diseases” (INDUSTRY-ACADEMIC COOPERATION FOUNDATION, YONSEI UNIVERSITY, priority 2010, dated 2016)

Key:
[1] = system: COS7 cells stably expressing EGFP-LC3; assay: Autophagy detection in stable cell line expressing EGFP-LC3; format: cell-based, African green monkey; conditions: COS7 EGFP-LC3, 24 hrs
Procedure: HeLa (human epithelial cervix adenocarcinoma) cells and COS-7 (African green monkey kidney cells) cells (Korean Cell Line Bank) were grown and maintained in DMEM containing 10% FBS (fetal bovine serum). A stable COS7 cell line expressing EGFP-LC3 was established by transfecting COS7 cells with pEGFP-LC3 using Lipofectamine 2000 according to the manufacturer's protocol (Invitrogen). Stable clones were selected in complete medium containing 750 μg/mL of G418. Cells were cultured at 37° C. in an atmosphere of 5% CO2 in air, pH 7.4. DMEM and FBS were obtained from Gibco Laboratories (Grand Island, N.Y.). Plasmids encoding EGFP-LC3 was kindly provided by Tamotsu Yoshimori (National Institute for Basic Biology, Japan).
In order to measure direct elements of autophagy, indatraline-induced autophagy was further verified in stable COST cell line expressing EGFP-LC3. Where autophagy was induced, the cytosolic form of LC3 is converted into the membrane-bound form. By the recruitment of Atg12-Atg5 complex, the cytosolic form of LC3 is converted into the membrane-bound form to mature the autophagosome. After indatraline treatment for 24 hrs, EGFP-LC3 positive small vacuoles were examined in the cytosol.

[2] = system: HeLa cells; assay: LC3 immunoblotting (LC3-I to LC3-II conversion) in HeLa; format: cell-based, human; conditions: for effect of autophagy inhibitor on indatraline-induced conversion of LC3-I to LC3-II: inhibitor pre-treated 1 hr
Procedure: (§1) Soluble proteins were harvested from indatraline-treated HeLa cells by using SDS buffer (50 mM Tris HCl, pH 6.8, 10% glycerol, 2% SDS, 10 mM dithiothreitol, and 0.005% bromophenol blue). Equal volumes of proteins were separated by 12.5% SDS-PAGE and transferred to PVDF membranes (Millipore). Blots were then blocked and immunolabeled overnight at 4° C. using anti-LC3 antibody (MBL, Nagoya, Japan). Immunolabeling was visualized with enhanced chemiluminescence (ECL) kit (Amersham Life Science, Inc., Buckinghamshire, UK) according to the manufacturer's protocol. Tubulin was used as an internal control and was detected using anti-tubulin antibody (Upstate Biotechnology).
LC3 conversion was finally verified by immunoblotting. After indatraline treatment for 24 hrs, the conversion of LC3-I to LC3-II in cells was tested (FIG. 2A). Inductions of autophagy in both of HUVEC and HeLa cells were tested in concentration starting from 5 μM. In order to investigate signal pathway related to indatraline, well-known autophagy inhibitors 3-MA (10 mM), Bafilomycin A (100 nM), PD98059 (10 μM) and Wortmannin (100 nM) was treated with indatraline. The inhibitors were pre-treated for 1 hr before indatraline and treated with 5 μM or 10 μM of indatraline. Where indatraline was treated with 5 μM of concentration, the conversion of LC3-I to LC3-II was inhibited in Bafilomycin A-treated sample and Wortmannin-treated sample (FIG. 2B). However, where indatraline was treated with 10 μM of concentration, the conversion of LC3-I to LC3-II was not inhibited in inhibitor-treated samples, except for Bafilomycin A-treated sample.

[3] = system: HUVEC; assay: LC3 immunoblotting (LC3-I to LC3-II conversion) in HUVEC; format: cell-based; conditions: 24 hrs
Procedure: as §1
LC3 conversion was finally verified by immunoblotting. After indatraline treatment for 24 hrs, the conversion of LC3-I to LC3-II in cells was tested (FIG. 2A). Inductions of autophagy in both of HUVEC and HeLa cells were tested in concentration starting from 5 μM. In order to investigate signal pathway related to indatraline, well-known autophagy inhibitors 3-MA (10 mM), Bafilomycin A (100 nM), PD98059 (10 μM) and Wortmannin (100 nM) was treated with indatraline. The inhibitors were pre-treated for 1 hr before indatraline and treated with 5 μM or 10 μM of indatraline. […]

[4] = system: HeLa cells; assay: Cell proliferation assay (MTT) in HeLa; format: cell-based; conditions: Homo sapiens, 72 h, 3 days
Procedure: (§2) Cell proliferation was measured using a MTT [3-(4,5-dimethylthiazol-2-yl)-2,5-diphenyltetrazolium bromide] colorimetric assay. HeLa cells and HUVEC (Lonza, USA) were seeded at a density of 3×10^3 cells/well in 96-well plates and incubated for 24 hrs. Cells were treated with various concentration of indatraline. After 3 days of treatment, 2 mg/mL MTT was added to each well and incubated for 4 hrs. MTT formazoan in each well was dissolved in 150 μL of DMSO, and absorbance at 595 nm was measured in a microplate reader (Bio-Tek Instrument Inc., Winooski, Vt.). Relative cell growth was measured by calculating the ratio between signal of indatraline-treated wells and control wells.

[5] = system: HUVEC; assay: Cell proliferation assay (MTT) in HUVEC; format: cell-based; conditions: Homo sapiens, 72 h, 3 days
Procedure: as §2

[6] = system: HUVEC; assay: VEGF-induced capillary formation assay; format: cell-based; conditions: VEGF 50 ng/ml
Procedure: Matrigel (10 mg/mL) (BD, USA) was coated to 48-well plates and polymerized at 37° C. HUVEC (6×10^4 cells) was inoculated on the surface of matrigel in 48-well plates. Under the presence of VEGF (50 ng/ml), the compound was added for 4 hrs at 37° C. Cell morphological changes and a capillary structure formed were observed microscope (IX71, Olympus), and the images were obtained using DP70 camera (Olympus) at 100× magnification.

[7] = system: HUVEC; assay: VEGF-induced chemoinvasion assay; format: cell-based
Procedure: In vitro HUVEC invasion was verified using Transwell chamber equipped 8.0-1 m size pore polycarbonate filter insert. Briefly, the lower layer surface of the filter was coated with gelatin (1 mg/mL), and the upper layer surface of the filter was coated with matrigel (3 mg/mL). HUVEC (7×10^4 cells) was placed in the upper layer of the filter, and the compound was added to the lower layer of the filter under the presence of VEGF (50 ng/ml). Then, the chamber was incubated at 37° C. for 18 hrs. The cells were fixed with 70% methanol and stained with hematoxylin and eosin. The lower layer of the filter was observed by microscope with 100× magnification to measure the cell invasion. The cell images were obtained using DP70 camera.

[8] = system: HUVEC; assay: Cell migration (wound) assay; format: cell-based; conditions: 5 μM and 10 μM, 9 hrs
Procedure: To measure cell migration, HUVEC cells were cultured up to 100% confluence in 12-well plates. Then, the well was wounded a straight scratch using a 200 μL pipette tip. Cells were treated with indatraline and cells migration was observed every 3 hrs. The wound at 9 hrs was recovered by almost 80%. The images were obtained using DP70 camera with 40× magnification.

[9] = system: skin cancer cell line B16-F10; assay: LC3 conversion in B16-F10; format: cell-based; conditions: B16-F10, 5 μM and 10 μM
[10] = system: normal skin cell line melan-a; assay: LC3 conversion in melan-a; format: cell-based
Procedure: It was verified whether indatraline is induced autophagy and involved in melanogenesis. The correlation of autophagy and melanogenesis has been studied as described above. Pigmentation disorders are generated by melanogenesis (chloasma, freckle, age spot, etc.), and abnormality of melanogenesis control can lead to melanoma (skin cancer). Therefore, melanogenesis control may be used to whitening and skin cancer treatment. […] As a result, it was determined that autophagy was induced. […] In melan-a cells, LC3 conversion was observed from 1 μM of concentration (FIG. 5A).

[11] = system: rat carotid artery; assay: Inhibition of angiostenosis after balloon injury; format: in vivo; conditions: 7 days
Procedure: In order to verify effects for inhibiting angiostenosis by indatraline as autophagy-induced material in rat carotid artery, a balloon injury was created in the normal left rat carotid artery. After balloon injury, indatraline, rapamycin and DMSO (control group) were treated using catheter to observe angiostenosis. […] At 7 days after the injury, the carotid arteries were excised. Smooth muscle cells were stained with hematoxylin and eosin (H&E). Levels of angiostenosis were observed.
After balloon injury, indatraline, rapamycin and DMSO (control group) were treated using catheter to observe angiostenosis. […] The ratio between intima area and media area was compared by observing tissue stenosed.

[12] = system: HeLa cell; assay: Cytotoxicity during autophagy screening in HeLa; format: cell-based, human; conditions: 5 μM, 24 hrs
Procedure: (§3) The present study is newly reported that indatraline induces autophagy. Although the relationship between neurotransmitter inhibitor and autophagy has been studying, specific mechanisms for each neurotransmitter inhibitor have not yet been unknown. Indatraline-induced autophagy was verified by fluorescence screening and LC3 conversion immunoblotting. In addition, indatraline inhibits cell proliferation with an IC50 of 3 μM in HeLa cell and an IC50 of 0.5 μM in HUVEC cell, respectively. […] In addition, angiogenesis inhibitory effect of indatraline is tested as autophagy inducer and cell growth inhibitor. Indatraline of In vitro assay inhibits capillary formation, invasion and migration as angiogenesis indicators. […] Induction of autophagy may trigger signal inhibiting angiogenesis, or inhibition of neurotransmitter may simultaneously stimulate inhibitions of both of autophagy and angiogenesis.

[13] = system: HUVEC cell; assay: Cytotoxicity during autophagy screening in HUVEC; format: cell-based; conditions: 5 μM, 24 hrs
Procedure: as §3

[14] = system: B16-F10 cells; assay: Cell growth (MTT) in B16-F10; conditions: B16-F10, 5 μM, vs control group
Procedure: (§4) In order to verify whether indatraline induces autophagy and is involved in melanogenesis, skin cancer cell line B16-F10 and normal skin cell line melan-a were treated with indatraline to determine autophagy generation. The amount of melanin generated in each cell line was measured at 5 μM concentration in which autophagy strongly occurs. For measurement on amounts of melanin, cells were treated with indatraline for 24, 48 and 72 hrs, and collected with KOH every day to measure melanin pigment absorbance at 410 nm. At the same time, cell proliferation was measured using MTT.
(§5) The amount of melanin generated in each cell line was measured at 5 μM of concentration which autophagy surely occurs. […] At the same time, cell growth was measured.

[15] = system: melan-a cells; assay: Cell growth (MTT) in melan-a; conditions: 5 μM, vs control group
Procedure: as §4, §5

[16] = system: HeLa cells; assay: Autophagy detection by MDC staining; conditions: 24 hrs
Text: (§6) Each sample was washed with PBS three times and visualized by fluorescence microscopy. […] Hoechst 33258 and LysoTracker were purchased from Molecular Probes (Eugene, Oreg.), and MDC was purchased from BioChemika (Sigma, Switzerland).

[17] = system: B16-F10 cells; assay: Measurement of amounts of melanin generated in B16-F10; conditions: B16-F10, 5 μM, vs control group
Procedure: as §4, §5

[18] = system: melan-a cells; assay: Measurement of amounts of melanin generated in melan-a; conditions: 5 μM, vs control group
Procedure: as §4, §5

[19] = system: HeLa cells; assay: Autophagy detection by Lysotracker fluorescence, quantified by HCS
Text: as §6

SMILES: CN[C@@H]1C[C@@H](c2ccc(Cl)c(Cl)c2)c2ccccc21 [indatraline]
- EGFP-LC3 fluorescence in the cytoplasm [1]: increased indatraline concentration-dependently
- concentration from which LC3 conversion (autophagy induction) occurs ([2]; HeLa, 24 hrs): ≥ 5 µM
- concentration from which LC3 conversion (autophagy induction) occurs [3]: ≥ 5 µM
- IC50 [4]: 3000 nM
- IC50 [5]: 500 nM
- VEGF-induced capillary formation ([6]; 1 μM): inhibited the mature capillary formation
- capillary formation ([6]; 4 hrs): weakly inhibited
- VEGF-induced invasion ([7]; 0.5 μM and 1 μM, 18 hrs): significantly decreased invasion cells
- concentration from which VEGF-induced invasion is effectively inhibited ([7]; FIG. 4B legend): ≥ 5 µM
- migration of HUVEC [8]: inhibited migration
- LC3 conversion [9]: strongly occurred
- concentration from which LC3 conversion is observed [10]: ≥ 1 µM
- angiostenosis [11]: significantly inhibited
- proliferation of smooth muscle cells [11]: inhibited
- intima area (ratio between intima area and media area) ([11]; control approximately 80%): less than 60%
- smooth muscle cell growth reduced compared to control group ([11]; catheter treatment, intima/media ratio): approximately 20%
- cytotoxicity [12]: no cytotoxicity
- cytotoxicity [13]: no cytotoxicity
- cell growth inhibited ([14]; 24 hrs): 55%
- cell growth inhibited (maintained) ([14]; after 24 hrs (maintained)): 54%
- cell growth inhibited ([15]; 24 hrs): 62%
- cell growth inhibited (maintained) ([15]; after 24 hrs (maintained)): 56%
- MDC staining fluorescence [16]: dose-dependent increase of fluorescence from 1 μM
- melanogenesis inhibited ([17]; 48 hrs): approximately 77%
- melanogenesis inhibited ([17]; 72 hrs): approximately 59%
- melanogenesis inhibited ([18]; 48 hrs): approximately 89%
- melanogenesis inhibited ([18]; 72 hrs): approximately 74%
- autophagy induction (Lysotracker fluorescence) relative to control group ([19]; 1 μM, 24 hrs, HCS): 2.87 times
- autophagy induction in HCS ([19]; Lysotracker): induced autophagy similar to rapamycin

SMILES: CO/C1=C\C(C)=C\[C@@H](C)[C@@H](O)[C@@H](C)C/C(C)=C/C=C/[C@H](OC)[C@@H]([C@@H](C)[C@@H](O)[C@H](C)[C@@]2(O)C[C@@H](O)[C@H](C)[C@@H](C(C)C)O2)OC1=O [Bafilomycin A]
- effect of autophagy inhibitor on indatraline-induced conversion of LC3-I to LC3-II ([2]; indatraline 5 μM): inhibited
- effect of autophagy inhibitor on indatraline-induced conversion of LC3-I to LC3-II ([2]; indatraline 10 μM): inhibited
